Measured values as given in patent US8940334B2, “Pharmaceutical composition of an anthracycline” (priority 2007, dated 2015).

Columns and labels:
[1] = Size and appearance of drug-loaded DC Bead microspheres by image analysis at microscope; format: physicochemical; conditions: doxorubicin 25 mg drug/ml DC Bead; over loading and elution in PBS
Description: Nemorubicin hydrochloride was diluted at the concentration range of from 0.1 to 2.0 mg drug/ml DC Bead™ that represent clinically applicable doses. In the following examples microspheres of 100-300 μm diameters (DC Bead™) were used. Similar results were obtained when microspheres of 300-500 μm diameters (DC Bead™) were used.
The size and spherical shape of microspheres were analyzed after loading with nemorubicin hydrochloride and during the release of the drug up to 16 days. As comparison DC Bead™ microspheres were loaded with doxorubicin at the clinically used dosage of 25 mg drug/ml DC Bead™.
Drug loading: DC Bead™ microspheres were conditioned in water for 10 min. Then the water was discarded and nemorubicin hydrochloride or doxorubicin was added.
Drug release: DC™ microspheres with or without drug were incubated in Phosphate Buffer Saline (PBS) or human plasma from healthy donors up to 16 days. The size and spherical shape of DC Bead™ microspheres were measured at different time points.
Size and appearance of nemorubicin hydrochloride-DC Bead™ microspheres during drug-loading and drug-elution were determined by a Leica DM IRB (Leica) microscope equipped by Evolution MP Color CCD Camera (Media Cybernatics). The analysis of size was performed by Image Pro Plus™ (Media Cybernatics). […] At least four field-images for samples were analyzed to support the statistical analysis.

[2] = Elution efficiency from HepaSphere microspheres (HPLC-MS/UV); format: physicochemical; conditions: up to 168 h
Description: Nemorubicin hydrochloride (1 mg drug/ml HepaSphere™, 2.5 mg drug/ml HepaSphere™) and doxorubicin (1 mg drug/ml HepaSphere™, 2.5 mg drug/ml HepaSphere™, 25 mg drug/ml HepaSphere™) were mixed with HepaSphere™ microspheres (50-100 μm). After 20 minutes of incubation the elution efficiency of nemorubicin hydrochloride and doxorubicin was measured up to 168 h.
At desiderate elution time, supernatant was collected carefully by syringe, avoiding beads aspiration. Then solutions were collected in Eppendorf tubes and stored at −20° C. for further analysis.
The released amount of nemorubicin hydrochloride and doxorubicin was evaluated by HPLC-MS/UV analysis (the method used is reported in Example 2).

[3] = system: human mammary adenocarcinoma cells (MCF-7); assay: Cytotoxicity of elution fractions from DC Bead microspheres on MCF-7 cells (ATPLite); format: cell-based; conditions: MCF-7, 72 h treatment
Description: (§1) The release of nemorubicin hydrochloride from DC Bead™ microspheres was evaluated in PBS and in human plasma. At the end of the loading time and at each elution point, loaded nemorubicin hydrochloride-DC Bead™ microspheres were washed by warm water and finally incubated in warm PBS or human plasma at 37° C.
At desiderate elution time supernatant was collected carefully by syringe, avoiding beads aspiration. Then solutions were filtered by 70 μm nylon filcon filter (BD Biosciences) to avoid carry-over contamination, collected in Eppendorf tubes and finally stored at −20° C. for further analysis.
Samples were split for: • evaluation of the cytotoxicity of nemorubicin hydrochloride and doxorubicin against tumor cells (as dose able to inhibit cell growth by 50%; IC50). • evaluation of the released amount of nemorubicin hydrochloride and doxorubicin by HPLC-MS/UV analysis (the method used is reported in Example 2). In Vitro Antitumor Activity
The cytotoxic effect of elution fractions was investigated on human mammary adenocarcinoma cells (MCF-7, ECACC source). Cells were grown in E-MEM/Glutamax medium (Invitrogen), 10% FBS (EuroClone), and 1% Non-Essential AminoAcids (Invitrogen) and maintained at 37° C. at 5% CO2. For cytotoxicity test, cells were plated at density of 5,000 cells/well in 96-well plates (Corning) and grown for 24 h before treatment. Cells were treated for 72 h by raise dilutions of elution fractions. At the end of treatment, cells were incubated with TS substrate (ATPLite™). Plates were read for chemiluminescence (480/540 nm) by Perkin Elmer Envision™ plate reader.
IC50 were calculated by LSW Data Analysis™ curve fitting. The IC50 value of nemorubicin hydrochloride and doxorubicin in the medium eluted from DC Bead™ microspheres was compared to that of standard nemorubicin hydrochloride or doxorubicin fresh solutions.

[4] = Release of drug from DC Bead microspheres in human plasma; format: physicochemical; conditions: 37° C.
Description: The measurements of nemorubicin hydrochloride in the elution medium were carried out with HPLC-MS/UV analysis performed by Finnigan MAT/LCQ Deca XP ion trap MS equipped with ESI ion source, directly connected to a Surveyor HPLC system (Thermo Electron Corporation). HPLC-MS/UV separations were set up on Phenomenex Gemini Phenyl, 3 μm, 50×4.6 mm by Acetate Buffer:Acetonitrile 1:9. UV detection was done at 480 nm and for ESI-MS analysis a heated capillary temperature at 275° C. and spray voltage at 4 KV was applied.
as §1
At desiderate elution time supernatant was collected carefully by syringe, avoiding beads aspiration. Then solutions were filtered by 70 μm nylon filcon filter (BD Biosciences) to avoid carry-over contamination, collected in Eppendorf tubes and finally stored at −20° C. for further analysis. […]

In the case of COc1cccc2c1C(=O)c1c(O)c3c(c(O)c1C2=O)C[C@@](O)(C(=O)CO)C[C@@H]3O[C@H]1C[C@H](N)[C@H](O)[C@H](C)O1 [Doxorubicin, reference compound], the “size range of loaded microspheres (diameter)” value [1] is reported as 85-125 μm, the “% total released drug” value ([2]; Dose 1 mg drug/ml HepaSphere (50-100 μm)) is reported as 7% and the “% total released drug” value ([2]; Dose 2.5 mg drug/ml HepaSphere (50-100 μm)) is reported as 4%. For the same compound, the “% total released drug” value ([2]; Dose 25 mg drug/ml HepaSphere (50-100 μm)) was 35%, the IC50 ([3]; MCF7, 72 h, Standard (fresh drug solution)) was 0.25 µM and the IC50 ([3]; MCF7, 72 h, fraction eluted at 72 h) was 0.14 µM. For the same compound, the IC50 ([3]; MCF7, fraction eluted at 24 h) was 0.25 µM, the IC50 ([3]; MCF7, fraction eluted at 48 h) was 0.18 µM and the IC50 ([3]; MCF7, fraction eluted at 96 h) was 0.2 µM. It also gave an IC50 ([3]; MCF7, fraction eluted at 120 h) of 0.45 µM, an IC50 ([3]; MCF7, fraction eluted at 144 h) of 1.5 µM and an IC50 ([3]; MCF7, fraction eluted from DC Bead microspheres at 1 h) of 0.3 µM. For the same compound, the total drug released [4] was 2.5%.
